According to patent US12565504B2, “Spirocyclic O-glycoprotein-2-acetamido-2-deoxy-3-d-glucopyranosidase inhibitors” (BIOGEN MA INC., priority 2019, dated 2026):

Tests used:
OGA (S400 O-GLCNAC) = OGA (S400 O-GLCNAC) (Homo sapiens (Human), UniProt O60502); assay: Cellular OGA-Tau MSD Assay; format: cell-based; details: HEK-293T cells transfected with OGT and Tau-V5; Tau-S400-GlcNAc MSD readout
Experimental: HEK-293T cells were transfected with OGT and Tau-V5 plasmids using Lipofectamine and grown overnight. Next day, the cells were collected and re-plated at 1×10^5 cells per well in 96 well plates. Cells were incubated for 4 hr at 37° C., before compounds were added at 1 uM, with 3-fold dilutions in a 10-point titration. Cell plates were incubated with compounds overnight at 37° C. The next day media was removed from wells by gentle aspiration and 120 ul of 1× Cell Lysis buffer mixed with protease and phosphatase cocktail added to each well. A freeze thaw was performed at −80° C., then mixed before transferring 50 μl to MSD plates coated with V5-tag antibody to capture Tau. MSD Plates were incubated overnight at 4° C., on a plate shaker. The following day, plates were washed and incubated with Tau-S400-GlcNAc antibody for 2 hr and then developed with rabbit Sulfo-tag antibody. Final read out was carried out on an MSD 600 reader. The data was analyzed using Graph Pad or Genedata, the data was normalized and % activity versus log of compound concentration was plotted. The ICso values were obtained from a 4 parameter fit.

P-gp (MDR1) = assay: MDR1-MDCK Efflux Ratio Assay; format: in vitro ADME; details: dog, MDR1-MDCK cells, pH 7.4, read-out: MDR1-MDCK Efflux Ratio (B-A/A-B)
Experimental: MDR1-MDCK cell monolayers were grown to confluence on microporous polyester membranes in 96-well Corning insert plates. The permeability assay buffer was Hanks' Balanced Salt Solution containing 10 mM HEPES at pH of 7.4. Loperamide (1 μM) was used as a positive control P-gp substrate. Propranolol and Bestatin (1 μM) were used as high and low permeability comparators, respectively.
Test compounds or positive control P-gp substrate/permeability comprators were added to respective apical and basolateral chambers for bidirectional assessment of permeability. Receiver buffer (transport buffer supplemented with 1% bovine serum albumin) was added to respective receiver chambers. MDR1-MDCK cells were incubated with test compounds at 37° C. with 5% CO2 for 2 hr. Samples were collected from the donor chamber at both 0 and 120 minutes, and from the receiver chamber at 120 minutes. Test and control compound concentrations were determined using LC-MS/MS analysis. Each determination was performed in triplicate.

[1] = molecular target: Recombinant full length human OGA enzyme (Homo sapiens (Human), UniProt O60502); assay: OGA Enzyme Inhibition Biochemical Assay; details: 1 nM OGA, 100 μM 4-MUGlcNAc, 90 minutes, pH 6.4
Experimental: Recombinant full length human OGA enzyme was purchased from Origene. 4-MUGlcNAc substrate was purchased from Sigma. All other reagents were purchased from Sigma or Fisher. Assay buffer consists of the McIlvaine buffer system, pH 6.4 (0.2M Na2HPO4 mixed with 0.1M citric acid) and 0.01% BSA. […] Reactions were incubated for 90 minutes at room temperature and quenched with 40 μl of 3M glycine, pH 10 and read on a Perkin Elmer Envision plate reader (Ex: 355 nm/Em: 460 nm). Compounds were tested with a 10-point dose-response starting from 20 μM with a 4-fold dilution. Data was fit using GraphPad Prism using a 4-parameter fit with variable slope.

[2] = Rat Liver Microsome Stability Assay; details: rat liver microsomes 0.5 mg/mL, compound 1 μM; Qh 55 mL/minute/kg
Experimental: Aliquots (40 uL) at 0, 5, 10, 15, 25 and 40 minutes post NADPH addition (or compound addition for reactions in absence of NADPH) were transferred into individual 96-well plate wells containing 40 ng/ml of 8-cyclopently-1,3-dipropylxanthine (CPDPX, internal standard) in 160 uL acetonitrile:methanol (1:1 v/v).
The LC/MS/MS system consisted of an ultra high throughput RapidFire® 300 system (Agilent Technologies, Santa Clara, CA) coupled to a Triple Quad 5500 mass spectrometer (ABSciex, Foster City, CA). Sample load and wash were performed on a RapidFire® C4 cartridge using 0.1% formic acid in water as mobile phase A and sample elution using 0.1% formic acid in acetonitrile:methanol (1:1 v/v) as mobile phase B.
CLint, app (apparent intrinsic clearance) was calculated using the following equation for microsome stability.
[formula] • where “a” represents 45 grams of liver/kg of body weight for rat. • CLint,app (apparent intrinsic clearance) was calculated using the following equation for hepatocyte stability: • CLhep (hepatic clearance) was calculated using the following equation for microsomes
[formula] • using 55 mL/minute/kg as Qh (hepatic blood flow) for rat.

Chain of Recombinant full length human OGA enzyme (O60502 whole entry): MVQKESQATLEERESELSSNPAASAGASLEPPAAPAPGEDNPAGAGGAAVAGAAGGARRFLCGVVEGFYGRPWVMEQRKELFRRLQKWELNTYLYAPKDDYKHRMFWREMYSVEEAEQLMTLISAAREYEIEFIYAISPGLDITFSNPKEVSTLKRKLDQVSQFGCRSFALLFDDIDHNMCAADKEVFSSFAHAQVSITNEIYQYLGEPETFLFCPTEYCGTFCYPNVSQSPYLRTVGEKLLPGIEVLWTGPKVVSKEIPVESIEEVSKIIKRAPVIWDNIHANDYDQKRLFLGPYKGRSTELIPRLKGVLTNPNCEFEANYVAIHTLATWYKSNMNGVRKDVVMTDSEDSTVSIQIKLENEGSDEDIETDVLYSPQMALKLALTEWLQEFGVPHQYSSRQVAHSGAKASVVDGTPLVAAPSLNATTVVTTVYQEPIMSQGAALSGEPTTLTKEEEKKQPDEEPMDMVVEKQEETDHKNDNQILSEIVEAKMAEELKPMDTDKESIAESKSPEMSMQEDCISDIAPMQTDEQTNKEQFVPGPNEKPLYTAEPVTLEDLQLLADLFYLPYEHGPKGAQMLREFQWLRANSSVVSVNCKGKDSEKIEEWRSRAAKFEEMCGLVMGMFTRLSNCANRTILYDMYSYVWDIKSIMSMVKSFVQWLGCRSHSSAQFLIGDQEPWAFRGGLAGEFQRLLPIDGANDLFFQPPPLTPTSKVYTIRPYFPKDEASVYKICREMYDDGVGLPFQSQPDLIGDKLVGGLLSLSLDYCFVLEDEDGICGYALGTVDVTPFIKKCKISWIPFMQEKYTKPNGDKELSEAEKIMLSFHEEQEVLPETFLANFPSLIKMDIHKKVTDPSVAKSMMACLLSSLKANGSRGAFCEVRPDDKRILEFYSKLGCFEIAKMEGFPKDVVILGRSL
Chain of OGA (S400 O-GLCNAC) (O60502 whole entry): as above

SMILES | IC50 (OGA (S400 O-GLCNAC)) [nM] | efflux ratio at 2 hr (P-gp (MDR1)) | IC50 [1] [nM] | RLM % Qh (%) [2] [%] | efflux ratio at 2 h (P-gp (MDR1))
CC(=O)Nc1nc(F)c(CN2CCCC3(COc4ccccc43)C2)s1 (centres unmarked) [Example 54, N-(5-((2H-Spiro[benzofuran-3,3′-piperidin]-1′-yl)methyl)-4-fluorothiazol-2-yl)acetamide] | > 1000 | 0.8 | 1500 | 94 | –
COc1cccc2c1OC1(CCN(Cc3sc(NC(C)=O)nc3F)C1)C2 (centres unmarked) [Example 4, N-(4-Fluoro-5-((7-methoxy-3H-spiro[benzofuran-2,3′-pyrrolidin]-1′-yl)methyl)thiazol-2-yl)acetamide] | > 1000 | 3.1 | 360 | 78 | –
COc1nccc2c1COC21CCCN(Cc2sc(NC(C)=O)nc2F)C1 (centres unmarked) [Example 81, N-(4-Fluoro-5-((4-methoxy-3H-spiro[furo[3,4-c]pyridine-1,3′-piperidin]-1′-yl)methyl)thiazol-2-yl)acetamide] | 15.1 | 2.5 | 1.1 | 78 | –
CC(=O)Nc1nc(F)c(CN2C[C@@]3(Cc4cc(Cl)ncc4O3)C[C@@H]2C)s1 [Example 10, N-(5-(((2R,5′S)-5-Chloro-5′-methyl-3H-spiro[furo[2,3-c]pyridine-2,3′-pyrrolidin]-1′-yl)methyl)-4-fluorothiazol-2-yl)acetamide] | 8 | 5.2 | 1 | 75 | –
CC(=O)Nc1ncc(CN2CCC3(Cc4ccccc4O3)C2)s1 (centres unmarked) [Example 3, N-(5-((3H-Spiro[benzofuran-2,3′-pyrrolidin]-1′-yl)methyl)thiazol-2-yl)acetamide] | 1000 | 1.7 | 330 | 81 | –
CC(=O)Nc1nc(F)c(CN2CCC3(Cc4cnc(Cl)cc4O3)C2)s1 (centres unmarked) [Example 7, N-(5-((6-Chloro-3H-spiro[furo[3,2-c]pyridine-2,3′-pyrrolidin]-1′-yl)methyl)-4-fluorothiazol-2-yl)acetamide] | 301 | 6.7 | 54 | 46 | –
CC(=O)Nc1nc(F)c(CN2C[C@@]3(Cc4cc(C5CC5)ncc4O3)C[C@@H]2C)s1 [Example 24, N-(5-(((2R,5′S)-5-Cyclopropyl-5′-methyl-3H-spiro[furo[2,3-c]pyridine-2,3′-pyrrolidin]-1′-yl)methyl)-4-fluorothiazol-2-yl)acetamide] | 12 | 6.5 | 1 | 75 | –
CC(=O)Nc1ncc(CN2CCCC3(CCCO3)C2)s1 (centres unmarked) [Example 52, N-(5-((1-Oxa-7-azaspiro[4.5]decan-7-yl)methyl)thiazol-2-yl)acetamide] | > 1000 | 2.6 | 180 | 74 | –
CC(=O)Nc1ncc(CN2C[C@@]3(Cc4cc(Cl)ncc4O3)C[C@@H]2C)s1 [Example 11, N-(5-(((2R,5′S)-5-Chloro-5′-methyl-3H-spiro[furo[2,3-c]pyridine-2,3′-pyrrolidin]-1′-yl)methyl)thiazol-2-yl)acetamide] | 9 | 8.4 | 6 | 70 | –
CC(=O)Nc1nc(F)c(CN2C[C@@]3(Cc4cc(C(F)F)ncc4O3)C[C@@H]2C)s1 [Example 26, N-(5-(((2R,5′S)-5-(Difluoromethyl)-5′-methyl-3H-spiro[furo[2,3-c]pyridine-2,3′-pyrrolidin]-1′-yl)methyl)-4-fluorothiazol-2-yl)acetamide] | 5 | 5.6 | 3 | 51 | –
CC(=O)Nc1nc(F)c(CN2C[C@@]3(Cc4cc(N5C[C@@H](C)O[C@@H](C)C5)ncc4O3)C[C@@H]2C)s1 [Example 39, N-(5-(((2R,5′S)-5-((2R,6S)-2,6-Dimethylmorpholino)-5′-methyl-3H-spiro[furo[2,3-c]pyridine-2,3′-pyrrolidin]-1′-yl)methyl)-4-fluorothiazol-2-yl)acetamide] | 4.9 | 9.7 | 0.5 | 52 | –
COc1cc2c(cn1)[C@@]1(C[C@H](C)N(Cc3sc(NC(C)=O)nc3F)C1)OC2 (single isomer, unassigned) [Example 75-b] | 24 | – | – | 89 | 5.4
CC(=O)Nc1nc(F)c(CN2C[C@@]3(Cc4cc(=O)[nH]cc4O3)C[C@@H]2C)s1 [Example 49, N-(4-Fluoro-5-(((2R,5′S)-5′-methyl-5-oxo-5,6-dihydro-3H-spiro[furo[2,3-c]pyridine-2,3′-pyrrolidin]-1′-yl)methyl)thiazol-2-yl)acetamide] | 73 | 2.5 | 1 | 16 | –
CC(=O)Nc1nc(F)c(CN2C[C@@]3(Cc4cc(N5CCN(C)CC5)ncc4O3)C[C@@H]2C)s1 [Example 45, N-(4-Fluoro-5-(((2R,5′S)-5′-methyl-5-(4-methylpiperazin-1-yl)-3H-spiro[furo[2,3-c]pyridine-2,3′-pyrrolidin]-1′-yl)methyl)thiazol-2-yl)acetamide] | 3 | 94 | < 1 | 65 | –
CC(=O)Nc1nc(F)c(CN2CCCC3(C2)OCc2ccncc23)s1 (centres unmarked) [Example 73, N-(5-((1H-Spiro[furo[3,4-c]pyridine-3,3′-piperidin]-1′-yl)methyl)-4-fluorothiazol-2-yl)acetamide] | 23.7 | 21.6 | 9.2 | 78 | –
CC(=O)Nc1ncc(CN2CCC3(C2)OCc2ccccc23)s1 (centres unmarked) [Example 57, N-(5-((3H-Spiro[isobenzofuran-1,3′-pyrrolidin]-1′-yl)methyl)thiazol-2-yl)acetamide] | 818 | 2.4 | 170 | 88 | –
CC(=O)Nc1ncc(CN2C[C@@]3(Cc4cc(N5CCC5)ncc4O3)C[C@@H]2C)s1 [Example 35, N-(5-(((2R,5′S)-5-(Azetidin-1-yl)-5′-methyl-3H-spiro[furo[2,3-c]pyridine-2,3′-pyrrolidin]-1′-yl)methyl)thiazol-2-yl)acetamide] | 4 | 39.5 | < 1 | 50 | –
COc1cc2c(cn1)[C@@]1(C[C@H](C)N(Cc3cnc(NC(C)=O)s3)C1)OC2 (single isomer, unassigned) [Example 76-b] | 38 | 8.9 | 160 | 89 | –
CC(=O)Nc1nc(F)c(CN2C[C@@]3(Cc4cc(N5C[C@H](C)O[C@@H](C)C5)ncc4O3)C[C@@H]2C)s1 [Example 43, N-(5-(((2R,5′S)-5-((2S,6S)-2,6-Dimethylmorpholino)-5′-methyl-3H-spiro[furo[2,3-c]pyridine-2,3′-pyrrolidin]-1′-yl)methyl)-4-fluorothiazol-2-yl)acetamide] | 8 | 17.5 | < 1 | 75 | –
COc1nccc2c1COC21C[C@H](C)N(Cc2cnc(NC(C)=O)s2)C1 (stereo partly drawn) [Example 78, N-(5-(((5′S)-4-Methoxy-5′-methyl-3H-spiro[furo[3,4-c]pyridine-1,3′-pyrrolidin]-1′-yl)methyl)thiazol-2-yl)acetamide] | 9 | 7.9 | 65 | 93 | –
CC(=O)Nc1ncc(CN2CCCC3(C2)OCc2cnccc23)s1 (centres unmarked) [Example 68, N-(5-((3H-Spiro[furo[3,4-c]pyridine-1,3′-piperidin]-1′-yl)methyl)thiazol-2-yl)acetamide] | 18 | 10.7 | 6 | 84 | –
